Consider 6 molecules from patent publication US11279707B2, “NEK inhibitors and methods of use” (DANA-FARBER CANCER INSTITUTE, INC., priority 2017, dated 2022).

SMILES strings stand for the structures.

As a reminder, the IC50 is the point on the concentration scale where inhibition reaches its midpoint. Lower therefore signals higher potency.

Common to all, as to format: biochemical
The target in test [1] is SLK (Homo sapiens, UniProt Q9H2G2). The test can be described thus: kinase inhibition, SLK.
Sequence of SLK (Q9H2G2 whole entry): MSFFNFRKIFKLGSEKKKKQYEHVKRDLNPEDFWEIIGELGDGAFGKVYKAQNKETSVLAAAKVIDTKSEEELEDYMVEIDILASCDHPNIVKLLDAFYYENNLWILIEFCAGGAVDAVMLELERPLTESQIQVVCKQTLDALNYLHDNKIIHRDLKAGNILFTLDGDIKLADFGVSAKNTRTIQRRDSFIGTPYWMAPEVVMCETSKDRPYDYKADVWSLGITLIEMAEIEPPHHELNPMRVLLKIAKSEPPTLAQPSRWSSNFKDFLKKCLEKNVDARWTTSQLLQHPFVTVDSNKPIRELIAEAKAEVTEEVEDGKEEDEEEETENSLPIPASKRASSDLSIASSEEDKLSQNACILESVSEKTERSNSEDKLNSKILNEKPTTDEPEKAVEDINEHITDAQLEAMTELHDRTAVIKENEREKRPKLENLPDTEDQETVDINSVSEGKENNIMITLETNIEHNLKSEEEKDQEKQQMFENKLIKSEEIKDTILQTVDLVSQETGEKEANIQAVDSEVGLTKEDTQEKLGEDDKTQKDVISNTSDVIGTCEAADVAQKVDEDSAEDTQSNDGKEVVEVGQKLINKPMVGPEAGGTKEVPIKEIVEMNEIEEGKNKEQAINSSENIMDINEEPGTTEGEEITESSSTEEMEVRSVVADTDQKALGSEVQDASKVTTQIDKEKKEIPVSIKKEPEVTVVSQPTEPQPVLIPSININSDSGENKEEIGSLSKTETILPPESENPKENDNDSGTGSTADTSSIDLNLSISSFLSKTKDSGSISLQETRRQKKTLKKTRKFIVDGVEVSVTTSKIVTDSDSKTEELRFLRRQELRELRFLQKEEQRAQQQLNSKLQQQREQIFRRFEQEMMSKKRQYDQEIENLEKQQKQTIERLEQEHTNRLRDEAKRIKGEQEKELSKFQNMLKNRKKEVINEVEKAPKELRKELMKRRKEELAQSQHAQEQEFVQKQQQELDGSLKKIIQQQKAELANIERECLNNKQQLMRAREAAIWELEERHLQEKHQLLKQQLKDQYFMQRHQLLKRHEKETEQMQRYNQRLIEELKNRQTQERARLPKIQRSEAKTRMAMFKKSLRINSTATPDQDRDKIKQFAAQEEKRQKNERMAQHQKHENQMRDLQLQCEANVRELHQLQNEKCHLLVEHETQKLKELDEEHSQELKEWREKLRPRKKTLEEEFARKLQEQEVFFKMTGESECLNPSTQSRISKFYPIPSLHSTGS
For test [2], the target named is RSK1 (Homo sapiens, UniProt Q15418). The test can be described thus: kinase inhibition, RSK1.
Sequence of RSK1 (Q15418 whole entry, species assumed): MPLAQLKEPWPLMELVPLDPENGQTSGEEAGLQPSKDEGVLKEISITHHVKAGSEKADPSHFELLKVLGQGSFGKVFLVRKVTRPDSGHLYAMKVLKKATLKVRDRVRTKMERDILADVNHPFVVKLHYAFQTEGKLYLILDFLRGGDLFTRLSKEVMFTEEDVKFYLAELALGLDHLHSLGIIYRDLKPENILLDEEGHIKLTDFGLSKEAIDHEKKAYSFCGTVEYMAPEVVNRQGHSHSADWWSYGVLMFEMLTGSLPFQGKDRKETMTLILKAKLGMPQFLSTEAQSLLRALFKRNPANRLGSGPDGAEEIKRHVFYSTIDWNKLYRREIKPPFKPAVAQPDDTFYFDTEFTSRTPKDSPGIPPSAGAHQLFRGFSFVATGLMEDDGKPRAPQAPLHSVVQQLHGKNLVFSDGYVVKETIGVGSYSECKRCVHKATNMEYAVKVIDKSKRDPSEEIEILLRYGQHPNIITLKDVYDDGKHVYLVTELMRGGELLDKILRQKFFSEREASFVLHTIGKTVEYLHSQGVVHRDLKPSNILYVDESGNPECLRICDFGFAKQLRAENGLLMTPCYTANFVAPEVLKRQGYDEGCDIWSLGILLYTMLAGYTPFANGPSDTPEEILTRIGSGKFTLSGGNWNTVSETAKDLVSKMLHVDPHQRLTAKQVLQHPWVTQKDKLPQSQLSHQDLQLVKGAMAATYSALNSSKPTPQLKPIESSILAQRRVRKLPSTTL
In test [3] the target is T1, AXL (Homo sapiens, UniProt P30530).
T1 sequence (P30530 26-894): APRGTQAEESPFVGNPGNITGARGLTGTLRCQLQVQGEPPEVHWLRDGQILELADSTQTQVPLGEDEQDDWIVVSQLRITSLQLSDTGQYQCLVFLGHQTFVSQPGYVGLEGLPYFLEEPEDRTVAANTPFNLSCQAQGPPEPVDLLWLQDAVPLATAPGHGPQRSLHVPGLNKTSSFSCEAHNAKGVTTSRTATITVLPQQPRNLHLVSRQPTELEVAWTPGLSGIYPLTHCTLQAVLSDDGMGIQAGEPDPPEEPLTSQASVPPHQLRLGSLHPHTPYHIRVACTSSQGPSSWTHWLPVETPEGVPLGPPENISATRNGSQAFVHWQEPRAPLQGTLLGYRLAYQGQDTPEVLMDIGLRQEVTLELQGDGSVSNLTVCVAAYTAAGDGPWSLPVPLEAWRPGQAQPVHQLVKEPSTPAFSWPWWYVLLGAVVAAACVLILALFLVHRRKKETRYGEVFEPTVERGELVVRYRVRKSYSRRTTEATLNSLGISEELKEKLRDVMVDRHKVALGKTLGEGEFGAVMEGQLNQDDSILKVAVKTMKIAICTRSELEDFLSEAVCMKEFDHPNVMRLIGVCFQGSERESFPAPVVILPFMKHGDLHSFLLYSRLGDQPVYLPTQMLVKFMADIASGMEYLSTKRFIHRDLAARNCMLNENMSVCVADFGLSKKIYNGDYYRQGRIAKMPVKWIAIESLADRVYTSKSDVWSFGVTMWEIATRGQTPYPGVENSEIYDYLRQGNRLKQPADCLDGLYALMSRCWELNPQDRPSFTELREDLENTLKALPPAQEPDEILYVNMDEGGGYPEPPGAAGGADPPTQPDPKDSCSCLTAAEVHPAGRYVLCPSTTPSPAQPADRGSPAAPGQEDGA
The test can be described thus: kinase inhibition, AXL.

The target of test [4] is GSK3B (Homo sapiens, UniProt P49841). The test can be described thus: kinase inhibition, GSK3B.
Sequence of GSK3B (P49841 whole entry, species assumed): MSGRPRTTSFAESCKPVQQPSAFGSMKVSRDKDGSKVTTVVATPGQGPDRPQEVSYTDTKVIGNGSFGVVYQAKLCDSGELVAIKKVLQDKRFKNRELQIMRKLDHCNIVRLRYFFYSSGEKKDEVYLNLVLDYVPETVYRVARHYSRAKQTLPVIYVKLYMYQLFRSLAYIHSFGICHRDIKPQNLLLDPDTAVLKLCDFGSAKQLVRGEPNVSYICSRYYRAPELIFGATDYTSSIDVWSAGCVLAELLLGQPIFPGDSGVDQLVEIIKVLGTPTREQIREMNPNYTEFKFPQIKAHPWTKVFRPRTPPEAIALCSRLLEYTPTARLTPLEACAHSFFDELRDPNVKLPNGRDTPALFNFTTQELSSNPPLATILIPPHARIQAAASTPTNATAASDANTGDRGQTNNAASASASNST
The target of test [5] is T2, NEK2 (Homo sapiens, UniProt P51955).
T2 sequence (P51955 1-445): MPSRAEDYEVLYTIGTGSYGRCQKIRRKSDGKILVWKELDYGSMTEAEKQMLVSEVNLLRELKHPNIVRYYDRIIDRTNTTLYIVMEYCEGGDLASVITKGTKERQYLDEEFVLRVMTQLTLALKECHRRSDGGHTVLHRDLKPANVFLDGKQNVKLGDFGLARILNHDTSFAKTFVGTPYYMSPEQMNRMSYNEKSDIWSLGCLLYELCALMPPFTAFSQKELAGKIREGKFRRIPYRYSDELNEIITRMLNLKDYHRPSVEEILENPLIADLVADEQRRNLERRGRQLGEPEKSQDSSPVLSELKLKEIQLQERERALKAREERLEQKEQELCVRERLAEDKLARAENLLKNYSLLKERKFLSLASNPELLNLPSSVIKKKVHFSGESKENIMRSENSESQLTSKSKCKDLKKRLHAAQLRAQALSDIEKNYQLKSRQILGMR
Kind of test: kinase inhibition, NEK2.

Test [6] deals with T3, NEK9 (Homo sapiens, UniProt Q8TD19).
T3 sequence (Q8TD19 1-979): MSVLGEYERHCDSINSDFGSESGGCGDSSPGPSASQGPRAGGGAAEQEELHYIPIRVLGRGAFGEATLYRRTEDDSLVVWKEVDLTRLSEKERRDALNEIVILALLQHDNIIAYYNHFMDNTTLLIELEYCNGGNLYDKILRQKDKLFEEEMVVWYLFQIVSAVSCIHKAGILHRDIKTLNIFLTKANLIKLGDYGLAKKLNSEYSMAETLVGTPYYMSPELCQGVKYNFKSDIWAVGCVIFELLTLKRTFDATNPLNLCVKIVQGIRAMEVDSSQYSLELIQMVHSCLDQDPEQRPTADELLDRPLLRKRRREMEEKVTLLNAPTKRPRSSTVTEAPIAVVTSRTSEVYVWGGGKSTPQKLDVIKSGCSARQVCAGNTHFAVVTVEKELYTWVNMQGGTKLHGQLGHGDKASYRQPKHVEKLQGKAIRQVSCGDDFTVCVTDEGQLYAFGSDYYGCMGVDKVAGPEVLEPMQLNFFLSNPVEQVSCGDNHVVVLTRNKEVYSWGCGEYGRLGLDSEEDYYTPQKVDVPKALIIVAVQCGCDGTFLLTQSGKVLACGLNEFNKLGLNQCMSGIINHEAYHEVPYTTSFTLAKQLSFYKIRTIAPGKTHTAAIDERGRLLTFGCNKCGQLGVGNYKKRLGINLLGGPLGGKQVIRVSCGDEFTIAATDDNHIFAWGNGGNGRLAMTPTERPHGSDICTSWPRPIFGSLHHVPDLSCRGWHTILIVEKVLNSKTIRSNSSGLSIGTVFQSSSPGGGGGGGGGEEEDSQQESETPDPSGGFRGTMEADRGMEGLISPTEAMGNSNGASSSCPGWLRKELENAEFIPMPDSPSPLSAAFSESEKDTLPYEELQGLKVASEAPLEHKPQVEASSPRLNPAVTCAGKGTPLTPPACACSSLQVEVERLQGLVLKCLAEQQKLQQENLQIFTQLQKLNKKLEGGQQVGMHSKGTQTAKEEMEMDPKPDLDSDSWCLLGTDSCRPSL
Kind of test: kinase inhibition, NEK9.

The target of test [7] is NEK7 (Homo sapiens, UniProt Q8TDX7). Kind of test: kinase inhibition, NEK7.
Sequence of NEK7 (Q8TDX7 whole entry, species assumed): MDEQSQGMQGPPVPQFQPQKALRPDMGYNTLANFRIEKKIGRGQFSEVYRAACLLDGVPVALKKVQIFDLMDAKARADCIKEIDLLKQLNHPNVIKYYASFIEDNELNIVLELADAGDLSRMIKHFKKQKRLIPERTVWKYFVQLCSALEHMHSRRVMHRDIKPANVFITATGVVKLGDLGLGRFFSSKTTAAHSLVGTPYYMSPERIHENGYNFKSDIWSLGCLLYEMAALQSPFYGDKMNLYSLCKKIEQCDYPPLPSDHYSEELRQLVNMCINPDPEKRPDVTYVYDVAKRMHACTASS
The target of test [8] is T4, DRAK1 (Homo sapiens, UniProt Q9UEE5).
T4 sequence (Q9UEE5 1-414): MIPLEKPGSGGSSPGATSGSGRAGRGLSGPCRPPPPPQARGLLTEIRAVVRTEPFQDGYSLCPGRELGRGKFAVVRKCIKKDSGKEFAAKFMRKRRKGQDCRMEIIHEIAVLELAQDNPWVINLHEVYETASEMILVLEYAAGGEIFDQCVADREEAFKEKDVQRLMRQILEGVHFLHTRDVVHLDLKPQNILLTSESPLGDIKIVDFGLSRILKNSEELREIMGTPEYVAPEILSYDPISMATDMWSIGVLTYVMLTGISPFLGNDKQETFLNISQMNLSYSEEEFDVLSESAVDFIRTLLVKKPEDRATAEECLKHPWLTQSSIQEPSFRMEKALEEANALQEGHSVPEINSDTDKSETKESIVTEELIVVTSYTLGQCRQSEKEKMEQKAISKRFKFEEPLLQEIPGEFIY
Kind of test: kinase inhibition, DRAK1.

In the case of `COc1cc(C2CCN(C)CC2)ccc1Nc1ncc2c(n1)n1c(cc3ccccc31)c(=O)n2C` [Compound I-6], the IC50 was 1000 to 5000 nM in test [1]; 50 to 250 nM in test [2]; 1000 to 5000 nM in test [3]; at least 5000 nM in test [4]; at most 50 nM in test [5]; 50 to 250 nM in test [6]. The results for the IC50 in test [7] and in test [8] were 50 to 250 nM and 250 to 1000 nM, respectively.

With `COc1cc(N2CCN(C)CC2)ccc1Nc1ncc2c(n1)n1c(cc3ccccc31)c(=O)n2C` [Compound I-3], the IC50 in test [1] was 1000 to 5000 nM; in test [2] it was 250 to 1000 nM; in test [3], at least 5000 nM; in test [4] it was 1000 to 5000 nM; in test [5] it was 50 to 250 nM; in test [6], 50 to 250 nM. Moreover, the IC50 in test [7] and in test [8] was 50 to 250 nM throughout.

With `COc1cc(N2CCC(O)CC2)ccc1Nc1ncc2c(n1)n1c(cc3ccccc31)c(=O)n2C` [Compound I-2], the IC50 in test [1] was 1000 to 5000 nM; in test [2] it was 1000 to 5000 nM; in test [3], at least 5000 nM; in test [4], 1000 to 5000 nM; in test [5] it was 50 to 250 nM; in test [6], 50 to 250 nM. The IC50 in test [7] and in test [8] was 50 to 250 nM in each case.

`CN1CCN(c2ccc(Nc3ncc4c(n3)n3c(cc5ccccc53)c(=O)n4C)cc2C(F)(F)F)CC1` [Compound I-5]: the IC50 was 250 to 1000 nM in test [1]; 1000 to 5000 nM in test [2]; 1000 to 5000 nM in test [3]; at least 5000 nM in test [4]; 50 to 250 nM in test [5]; 50 to 250 nM in test [6]. Moreover, the IC50 in test [7] lay in the range of 1000 to 5000 nM; in test [8] it was 250 to 1000 nM.

With `COc1cc(C(=O)N2CCC(N3CCN(C)CC3)CC2)ccc1Nc1ncc2c(n1)n1c(cc3ccccc31)c(=O)n2C` [Compound I-4], the IC50 in test [1] was 1000 to 5000 nM; in test [2], 250 to 1000 nM; in test [3], at least 5000 nM; in test [4], at least 5000 nM; in test [5], 50 to 250 nM; in test [6], 250 to 1000 nM. Moreover, the half-maximal inhibitory concentration (IC50) in test [7] and in test [8] was 1000 to 5000 nM throughout.

For the molecule `CN1CCN(c2ccc(Nc3ncc4c(n3)n3c(cc5ccccc53)c(=O)n4C)cc2)CC1` [Compound I-1], the IC50 in test [1] was 50 to 250 nM; in test [2], 50 to 250 nM; in test [3], 50 to 250 nM; in test [4], 250 to 1000 nM; in test [5], at most 50 nM; in test [6], at most 50 nM. The IC50 in test [7] lay in the range of 250 to 1000 nM; in test [8] it was 50 to 250 nM.
